# Read-outs that look alike come from different tables or passages of the source.
# Legend:
# [1] = tested on: patients with HFrEF following hemodynamic stabilization after an episode of ADHF; conditions: for Patients with ≥1 AE: full analysis set;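 as to all read-outs here: adverse events recorded in patients during the 10-week treatment phase following randomization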
# [2] = tested on: ambulatory HF patients with an ejection fraction ≤40%; conditions: compared with enalapril; cited from earlier work
# [3] = post-discharge, N = 496, 10-week treatment epoch
# [4] = post-discharge, N = 496, 10-week treatment period
# [5] = pre-discharge, N = 497, 10-week treatment epoch
# [6] = pre-discharge, N = 497, 10-week treatment period
# [7] = previous diagnosis of HFrEF (N = 705)
structure (smiles),measurement,setting,value
"CCCCC(=O)N(Cc1ccc(-c2ccccc2-c2nn[n-]n2)cc1)[C@H](C(=O)[O-])C(C)C.CCOC(=O)[C@H](C)C[C@@H](Cc1ccc(-c2ccccc2)cc1)NC(=O)CCC(=O)[O-].[Na+].[Na+].[Na+] [LCZ696, trisodium [3((1S,3R)-1-biphenyl-4-ylmethyl-3-ethoxycarbonyl-1-butylcarbamoyl) propionate-(S)-3′-methyl-2′-(pentanoyl{2″-(tetrazol-5-ylate)biphenyl-4′-ylmethyl}amino)butyrate]hemipentahydrate]",Serious adverse event: Pneumonia,"[1]; post-discharge, N = 496",3 (0.6) n (%)
same,Serious adverse event: Pulmonary edema,"[1]; post-discharge, N = 496",2 (0.4) n (%)
same,Serious adverse event: Renal failure,"[1]; post-discharge, N = 496",1 (0.2) n (%)
same,Serious adverse event: Respiratory tract infection,"[1]; post-discharge, N = 496",3 (0.6) n (%)
same,Serious adverse event: Ventricular tachycardia,"[1]; post-discharge, N = 496",0 (0.0) n (%)
same,Temporary treatment interruption due to AEs,"[1]; post-discharge, N = 496",55 (11.1) n (%)
same,Temporary treatment interruption due to SAEs,"[1]; post-discharge, N = 496",18 (3.6) n (%)
same,Temporary treatment interruption due to non-SAEs,"[1]; post-discharge, N = 496",42 (8.5) n (%)
same,Adverse event: Cardiac failure,[1]; [3],42 (8.5) n (%)
same,Adverse event: Diarrhea,[1]; [3],23 (4.6) n (%)
same,Adverse event: Dizziness,[1]; [3],21 (4.2) n (%)
same,Adverse event: Hyperkalemia,[1]; [3],56 (11.3) n (%)
same,Adverse event: Hypotension,[1]; [3],45 (9.1) n (%)
same,Adverse event: Peripheral edema,[1]; [3],24 (4.8) n (%)
same,Adverse event: Renal impairment,[1]; [3],15 (3.0) n (%)
same,Adverse event: Urinary tract infection,[1]; [3],15 (3.0) n (%)
same,Deaths,[1]; [4],10 (2.0) n (%)
same,Patients with ≥ SAE / at least one SAE,[1]; [4],88 (17.7) n (%)
same,Patients with ≥1 AE,[1]; [4],323 (65.1) n (%)
same,Permanent treatment discontinuation due to AEs,"[1]; post-discharge, N = 496, full analysis set",20 (4.0) n (%)
same,"RRR, permanent discontinuation due to AEs",[1]; pre- vs post-discharge,1.287
same,"Mortality, patients who died",[1]; pre-discharge arm,2.6%
same,"AE cardiac failure, patients",[1]; pre-discharge group,6.8%
same,"AE dizziness, patients",[1]; pre-discharge group,5.6%
same,"AE hyperkalemia, patients",[1]; pre-discharge group,11.1%
same,"AE hypotension, patients",[1]; pre-discharge group,12.3%
same,Patients with SAEs,[1]; pre-discharge group,18.9%
same,"SAE acute kidney injury, patients",[1]; pre-discharge group,1.2%
same,"SAE cardiac failure, patients",[1]; pre-discharge group,7.0%
same,Permanent treatment discontinuation due to SAEs,"[1]; pre-discharge, N = 497",15 (3.0) n (%)
same,Permanent treatment discontinuation due to non-SAEs,"[1]; pre-discharge, N = 497",8 (1.6) n (%)
same,Serious adverse event: Acute kidney injury,"[1]; pre-discharge, N = 497",6(1.2) n (%)
same,Serious adverse event: Atrial fibrillation,"[1]; pre-discharge, N = 497",3 (0.6) n (%)
same,Serious adverse event: Cardiac failure(acute/chronic),"[1]; pre-discharge, N = 497",35 (7.0) n (%)
same,Serious adverse event: Chronic obstructive pulmonary disease,"[1]; pre-discharge, N = 497",0 (0.0) n (%)
same,Serious adverse event: Hyperkalemia,"[1]; pre-discharge, N = 497",3 (0.6) n (%)
same,Serious adverse event: Hypotension,"[1]; pre-discharge, N = 497",4 (0.8) n (%)
same,Serious adverse event: Non-cardiac chest pain,"[1]; pre-discharge, N = 497",0 (0.0) n (%)
same,Serious adverse event: Pneumonia,"[1]; pre-discharge, N = 497",4 (0.8) n (%)
same,Serious adverse event: Pulmonary edema,"[1]; pre-discharge, N = 497",3 (0.6) n (%)
same,Serious adverse event: Renal failure,"[1]; pre-discharge, N = 497",3 (0.6) n (%)
same,Serious adverse event: Respiratory tract infection,"[1]; pre-discharge, N = 497",0 (0.0) n (%)
same,Serious adverse event: Ventricular tachycardia,"[1]; pre-discharge, N = 497",3 (0.6) n (%)
same,Temporary treatment interruption due to AEs,"[1]; pre-discharge, N = 497",70 (14.1) n (%)
same,Temporary treatment interruption due to SAEs,"[1]; pre-discharge, N = 497",21 (4.2) n (%)
same,Temporary treatment interruption due to non-SAEs,"[1]; pre-discharge, N = 497",54 (10.9) n (%)
same,Adverse event: Cardiac failure,[1]; [5],34 (6.8) n (%)
same,Adverse event: Diarrhea,[1]; [5],12 (2.4) n (%)
same,Adverse event: Dizziness,[1]; [5],28 (5.6) n (%)
same,Adverse event: Hyperkalemia,[1]; [5],55 (11.1) n (%)
same,Adverse event: Hypotension,[1]; [5],61(12.3) n (%)
same,Adverse event: Peripheral edema,[1]; [5],17 (3.4) n (%)
same,Adverse event: Renal impairment,[1]; [5],25 (5.0) n (%)
same,Adverse event: Urinary tract infection,[1]; [5],20 (4.0) n (%)
same,Deaths,[1]; [6],13 (2.6) n (%)
same,Patients with ≥ SAE / at least one SAE,[1]; [6],94 (18.9) n (%)
same,Patients with ≥1 AE,[1]; [6],338 (68.0) n (%)
same,Permanent treatment discontinuation due to AEs,"[1]; pre-discharge, N = 497, full analysis set",22 (4.4) n (%)
same,AE of interest: Blood creatinine increased,[1]; [7],26 (3.7) n (%)
same,AE of interest: Cardiac failure,[1]; [7],58 (8.2) n (%)
same,AE of interest: Hyperkalemia,[1]; [7],85 (12.1) n (%)
same,AE of interest: Hypotension,[1]; [7],108 (10.9) n (%)
same,AE of interest: Renal failure,[1]; [7],16 (2.3) n (%)
same,AE of interest: Renal impairment,[1]; [7],32 (4.5) n (%)
same,At least one AE,[1]; [7],478 (67.8) n (%)
same,At least one serious AE,[1]; [7],130 (18.4) n (%)
same,Death,[1]; [7],5 (0.7) n (%)
same,Treatment interruption due to AE,[1]; [7],87 (12.3) n (%)
same,Relative risk reduction in cardiovascular mortality and hospitalization for worsening HF,[2],20%

# From US20210177803A1, “NEW PHARMACEUTICAL USE FOR THE TREATMENT OF HEART FAILURE” (Novartis AG, priority 2018, published 2021)
